Values joined by “and” are separate entries in the source; they are usually repeats but may differ in a detail not shown here. Equal entries are not always repeated.

For series [1], the target named is T1, Pyrococcus horikoshii biotin protein ligase (PhBPL) (Pyrococcus horikoshii, UniProt O57883).
T1 sequence (O57883 1-235): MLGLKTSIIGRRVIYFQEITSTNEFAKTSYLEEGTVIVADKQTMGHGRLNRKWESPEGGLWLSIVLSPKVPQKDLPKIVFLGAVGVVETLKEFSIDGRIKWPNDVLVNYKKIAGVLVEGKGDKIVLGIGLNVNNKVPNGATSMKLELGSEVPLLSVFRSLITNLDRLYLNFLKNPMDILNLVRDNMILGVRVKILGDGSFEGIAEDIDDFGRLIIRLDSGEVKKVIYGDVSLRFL
In words: Steady state fluorescence titration of PhBPL with ligand. It is filed as binding. The following applies: for blue shift of emission maximum / quenching of intrinsic protein fluorescence: saturating ligand.

The next series deals with E. coli BPL. Conditions: bio-5′-AMP synthesis; cited from earlier work.
In series [2] the target is T1, Pyrococcus horikoshii biotin protein ligase (PhBPL). As to the kind of experiment: Isothermal titration calorimetry of PhBPL with biotin. It is filed as binding.
The series “AUC” concerns the molecule itself. In words: AUC.
Where [3] appears, read: KD, 20°C, Standard Buffer pH 7.5.
The mark [4] stands for this setting: KD, 30°C, Standard Buffer pH 7.5.
The mark [5] stands for this setting: KD, 40°C, Standard Buffer pH 7.5.
The mark [6] stands for this setting: KD, 50°C, Standard Buffer pH 7.5.

For the molecule `Nc1ncnc2c1ncn2C1OC(COP(=O)(O)CP(=O)(O)OP(=O)(O)O)C(O)C1O` (stereo not drawn) [AMPCPP, α,β-methyleneadenosine 5′-triphosphate], the Kd in series [1] (20°C, Standard Buffer pH 7.5) was 150 µM; in series [1] (20°C, titrated into PhBPL saturated with biotin) it was 140 µM. Besides, in series [1] (20°C, titrated into PhBPL saturated with biotin, ΔG°= RTlnKD), the “ΔG°” value was -5.1 ± 0.1 kcal/mol.

For `Nc1ncnc2c1ncn2[C@@H]1O[C@H](COP(=O)(O)OP(=O)(O)OP(=O)(O)O)[C@@H](O)[C@H]1O` [ATP, adenosine 5′-triphosphate], the Michaelis-Menten constant (Km) with E. coli BPL was roughly 3000 µM. The Kd in series [1] (setting [3]) was 240 µM; in series [1] (setting [4]), 290 µM; in series [1] (setting [5]), 300 µM; in series [1] (setting [6]), 430 µM; in series [1] (KD, temperature range of 20-50°C), 200 to 400 µM. Moreover, in series [1], the “blue shift of emission maximum” value is recorded as “approximately 5 nm”. Moreover, the “quenching of intrinsic protein fluorescence” value in series [1] was 60%. Besides, in series [1] (titrations from 20 to 50°C), the “binding enthalpy (van’t Hoff analysis)” value is -3.5 ± 1.5 kcal/mol.

Regarding `O=C(O)CCCC[C@@H]1SC[C@@H]2NC(=O)N[C@@H]21` [Biotin, d-biotin], the equilibrium dissociation constant (Kd) is 0.12 µM in series [1] (KD, 10°C, Standard Buffer pH 7.5); 0.2 µM in series [1] (setting [3]); 0.2 µM in series [1] (setting [4]); 0.51 µM in series [1] (setting [5]); 0.39 µM in series [1] (setting [6]). The “increase of equilibrium dissociation constant with temperature” value in series [1] (from 10°C to 50°C) is listed as “approximately four fold”. Moreover, in series [1], the “blue shift of emission maximum” value is “approximately 5 nm”. Also, in series [1], the “quenching of intrinsic protein fluorescence” value worked out at 30%. The “enthalpy of binding (van’t Hoff analysis)” value in series [1] (titrations from 10 to 50°C) is -4.4 ± 0.2 kcal/mol and -4.4 kcal/mol. In addition, the “equilibrium association constant by ITC” value in series [2] (20°C, direct titration) is reported as “identical to that measured by fluorescence titrations”. Also, in series [2] (temperature-dependence of binding by ITC), the heat capacity change was found to be 5±14 cal/mole·K.

B1: Pyrococcus horikoshii Biotin Protein Ligase (enzyme)
chain: T1 sequence (O57883 1-235)
Regarding B1, the “stoichiometry N” value in the series “AUC” came to 2.

The record behind these values is publication PMC3126109 (Biochemistry, 2010).
